Laboratory results taken from ChEMBL document CHEMBL6078667, “Synthesis, Biological Evaluation, and Mechanistic Insights of Rubrolide Analogues as Antitumor Agents” (J Nat Prod, 2024).
pIC50: −log10 of the molar value. The source made the active and inactive calls. The rule behind the calls is not given here.

How the values were obtained:
[1] = tested on: HCT-116; experiment: Cell cycle arrest in human HCT-116 cells assessed as accumulation of cells at G2/M phase at 0.2 uM measured after 24 hrs by PI staining based flow cytometric analysis (reference value: 26.4 %); format: functional
[2] = tested on: U-87 MG; experiment: Cytotoxicity against human U-87 MG cells assessed as inhibition of cell growth at 10 uM measured after 72 hrs by MTT assay relative to control; format: functional, U-87MG ATCC
[3] = tested on: HCT-116; experiment: Induction of apoptosis in human HCT-116 cells assessed as early apoptotic cells at 0.4 uM incubated for 24 hrs by Annexin V-FITC/PI staining based analysis (reference value: 7.40 %); format: functional
[4] = tested on: HeLa; experiment: Induction of apoptosis in human HeLa cells assessed as viable cells at 0.4 uM incubated for 24 hrs by Annexin V-FITC/PI staining based flow cytometric analysis (reference value: 90.6 %); format: functional; conditions: read-out: Activity
[5] = tested on: HCT-116; experiment: Induction of ROS production in human HCT-116 cells assessed as fold change at 0.2 to 0.4 uM incubated for 24 hrs by DCFH-DA probe based flow cytometric analysis; format: functional; conditions: dose 0.2-0.4 µM
[6] = tested on: MGC-803; experiment: Cytotoxicity against human MGC-803 cells assessed as inhibition of cell growth incubated for 72 hrs by MTT assay; format: functional, cell-based; conditions: MGC-803, 72 h
[7] = tested on: HeLa; experiment: Cell cycle arrest in human HeLa cells assessed as accumulation of cells at G2/M phase at 0.2 uM measured after 24 hrs by PI staining based flow cytometric analysis (reference value: 22.8 %); format: functional
[8] = Toxicity in female BALB/c nude mouse xenografted with human HeLa cells assessed as animal survival at 20 mg/kg, ip administered as liposome formulation once daily for 13 days; format: organism-based; conditions: in vivo, 312 h, time 13 day
[9] = tested on: HCT-116; experiment: Induction of apoptosis in human HCT-116 cells assessed as viable cells at 0.4 uM incubated for 24 hrs by Annexin V-FITC/PI staining based analysis (reference value: 92.4 %); format: functional; conditions: read-out: Activity
[10] = tested on: HeLa; experiment: Induction of apoptosis in human HeLa cells assessed as necrotic cells at 0.4 uM incubated for 24 hrs by Annexin V-FITC/PI staining based flow cytometric analysis (reference value: 0.44 %); format: functional
[11] = Toxicity in female BALB/c nude mouse xenografted with human HeLa cells assessed as body weight loss at 5 to 20 mg/kg, ip administered as liposome formulation once daily for 13 days; format: organism-based; conditions: in vivo, 312 h, dose 5-20 mg/kg, time 13 day
[12] = tested on: HeLa; experiment: Antitumor activity against human HeLa cells xenografted in female BALB/c nude mouse assessed as reduction in tumor cell growth administered intraperitoneally as liposome formulation once daily for 13 days; format: functional; conditions: dose 5-20 mg/kg, route ip, time 13.0 day
[13] = tested on: HeLa; experiment: Antitumor activity against human HeLa cells xenografted in female BALB/c nude mouse assessed as reduction in tumor cell volume at 20 mg/kg, ip administered as liposome formulation once daily for 13 days relative to control; format: functional; parameters: scale not given: the % may be the effect or the level left; conditions: time 13 day
[14] = tested on: HeLa; experiment: Upregulation of phosphorylated eIF2alpha expression in human HeLa cells at 0.2 to 0.4 uM measured after 48 hrs by Western blot analysis; format: functional, cell-based; conditions: dose 0.2-0.4 µM
[15] = tested on: HeLa; experiment: Induction of ROS production in human HeLa cells at 0.2 to 0.4 uM incubated for 24 hrs by DCFH-DA probe based flow cytometric analysis; format: functional, cell-based; conditions: dose 0.2-0.4 µM
[16] = tested on: MGC-803; experiment: Cytotoxicity against human MGC-803 cells assessed as inhibition of cell growth at 10 uM measured after 72 hrs by MTT assay relative to control; format: functional
[17] = tested on: HCT-116; experiment: Induction of apoptosis in human HCT-116 cells assessed as late apoptotic cells at 0.2 uM incubated for 24 hrs by Annexin V-FITC/PI staining based analysis (reference value: 0.095 %); format: functional
[18] = tested on: HCT-116; experiment: Induction of ROS production in human HCT-116 cells at 0.2 to 0.4 uM incubated for 24 hrs by DCFH-DA probe based flow cytometric analysis; format: functional, cell-based; conditions: dose 0.2-0.4 µM
[19] = tested on: HCT-116; experiment: Cell cycle arrest in human HCT-116 cells assessed as accumulation of cells at G0/G1 phase at 0.2 uM measured after 24 hrs by PI staining based flow cytometric analysis (reference value: 51.3 %); format: functional
[20] = tested on: HeLa; experiment: Cell cycle arrest in human HeLa cells assessed as increase in cyclin B1 expression at 0.2 to 0.4 uM incubated for 24 hrs by Western blot analysis; format: functional, cell-based; conditions: dose 0.2-0.4 µM
[21] = tested on: HCT-116; experiment: Induction of apoptosis in human HCT-116 cells assessed as late apoptotic cells at 0.4 uM incubated for 24 hrs by Annexin V-FITC/PI staining based analysis (reference value: 0.095 %); format: functional
[22] = Cytotoxicity against HHL-5 cells assessed as inhibition of cell growth incubated for 72 hrs by MTT assay; format: toxicity, cell-based; conditions: human
[23] = tested on: HCT-116; experiment: Cytotoxicity against human HCT-116 cells assessed as survival rate at 10 uM measured after 72 hrs by MTT assay relative to control; format: functional; conditions: read-out: Survival
[24] = tested on: HeLa; experiment: Induction of apoptosis in human HeLa cells assessed as necrotic cells at 0.2 uM incubated for 24 hrs by Annexin V-FITC/PI staining based flow cytometric analysis (reference value: 0.44 %); format: functional

SMILES: COc1ccc(C2=CC(=O)O/C2=C\c2ccc(O)cc2)cc1
- Activity [1]: 22.8%
- inhibition at 10 µM [2]: > 50%
- Activity [3]: 8.33%
- viability at 0.4 µM [4]: 47.9%
- fold change (FC) [5]: >4
- pIC50 [6]: 5.96
- Activity [7]: 58.6%
- Activity [8]: Non-toxic
- viability at 0.4 µM [9]: 69.6%
- Activity [10]: 1%
- Activity [11]: Non-toxic
- Activity [12]: Dose-dependent-effect
- Activity [13]: >60%
- Activity [14]: Active; Compound Impacts Endoplasmic Reticulum Stress Related Perk-Eif2Alpha-Chop Signalling Pathway
- Activity [15]: Active
- inhibition at 10 µM [16]: > 50%
- Activity [17]: 7.71%
- Activity [18]: Active
- Activity [19]: 38.8%
- Activity [20]: Active
- Activity [21]: 14.7%
- IC50 at 72 h [22]: 6.3 µM
- viability at 10 µM [23]: 19.7%
- Activity [24]: 0.44%
